Measurements taken from patent US10766869B2, “Triazoles for the treatment of demyelinating dieases” (Vertex Pharmaceuticals Incorporated, priority 2015, dated 2020).

Test system: primary rat mixed cortical cells
Assay: In vitro myelination assay (MBP positive myelin strands, fold myelin pixels above background)
Type: cell-based
Details: Rattus norvegicus, read-out: Fold myelin pixels above background relative to baseline of no added compound; for fold induction at 1 µM: 1.0 μM compound; for fold induction at 10 µM: 10.0 μM compound
Summary of the method: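 P1 rat cortical cells (neurons, OPCs, oligodendrocytes, astrocytes, microglia) were cultured 14 days at 37 °C with compound, with half-medium changes containing 1× compound on days 6 and 10. Fixed cells were immunostained for MBP and imaged at 10×. Total MBP myelin pixels per well were expressed as fold above no-compound baseline at 1.0 μM and 10.0 μM.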

[2H]C1(N2CCN(c3cc(C)cc(Nc4ncn(-c5ccccc5)n4)c3)CC2)COC1 [Compound 898, N-[3-[4-(3-deuteriooxetan-3-yl)piperazin-1-yl]-5-methyl-phenyl]-1-phenyl-1,2,4-triazol-3-amine]
fold induction at 1 µM: 10 to 100
fold induction at 10 µM: ≤ 1

Cc1cc(NCC(N2CCOCC2)C(F)(F)F)cc(Nc2ncn(-c3cc(F)cc(F)c3)n2)c1 (stereo not shown) [Compound 899, N1-[1-(3,5-difluorophenyl)-1,2,4-triazol-3-yl]-5-methyl-N3-(3,3,3-trifluoro-2-morpholino-propyl)benzene-1,3-diamine]
fold induction at 1 µM: 1 to 10
fold induction at 10 µM: 1 to 10

CCOCC(O)CN1CCN(c2cc(C)cc(Nc3ncn(-c4cc(F)cc(F)c4)n3)c2)CC1 (stereo not shown) [Compound 900, 1-[4-[3-[[1-(3,5-difluorophenyl)-1,2,4-triazol-3-yl]amino]-5-methyl-phenyl]piperazin-1-yl]-3-ethoxy-propan-2-ol]
fold induction at 1 µM: 1 to 10
fold induction at 10 µM: ≤ 1

Cc1cc(Nc2ncn(-c3cc(F)cc(F)c3)n2)cc(N2CCC3(CCO3)C2)c1 (stereo not shown) [Compound 901, 1-(3,5-difluorophenyl)-N-[3-methyl-5-(1-oxa-7-azaspiro[3.4]octan-7-yl)phenyl]-1,2,4-triazol-3-amine]
fold induction at 1 µM: 1 to 10
fold induction at 10 µM: ≤ 1

Cc1cc(Nc2ncn(-c3cc(F)cc(F)c3)n2)cc(N2CCN(CCO)C(C)C2)c1 (stereo not shown) [Compound 902, 2-[4-[3-[[1-(3,5-difluorophenyl)-1,2,4-triazol-3-yl]amino]-5-methyl-phenyl]-2-methyl-piperazin-1-yl]ethanol]
fold induction at 1 µM: 1 to 10
fold induction at 10 µM: ≤ 1

Cc1cc(NCC2CN(CC(C)C)CCO2)cc(Nc2ncn(-c3cc(F)cc(F)c3)n2)c1 (stereo not shown) [Compound 903, N1-[1-(3,5-difluorophenyl)-1,2,4-triazol-3-yl]-N3-[(4-isobutylmorpholin-2-yl)methyl]-5-methyl-benzene-1,3-diamine]
fold induction at 1 µM: 10 to 100
fold induction at 10 µM: 1 to 10

CCC(CO)N1CCN(c2cc(C)cc(Nc3ncn(-c4cc(F)cc(F)c4)n3)c2)CC1 (stereo not shown) [Compound 904, 2-[4-[3-[[1-(3,5-difluorophenyl)-1,2,4-triazol-3-yl]amino]-5-methyl-phenyl]piperazin-1-yl]butan-1-ol]
fold induction at 1 µM: ≤ 1
fold induction at 10 µM: ≤ 1

Cc1cc(Nc2ncn(-c3cc(F)cc(F)c3)n2)cc(N2CCN(C3CCCC3)C(=O)C2)c1 [Compound 905, 1-cyclopentyl-4-[3-[[1-(3,5-difluorophenyl)-1,2,4-triazol-3-yl]amino]-5-methyl-phenyl]piperazin-2-one]
fold induction at 1 µM: 1 to 10
fold induction at 10 µM: 10 to 100

Cc1cc(Nc2ncn(-c3cc(F)cc(F)c3)n2)cc(N2CCOC3(CCOCC3)CC2)c1 [Compound 906, 1-(3,5-difluorophenyl)-N-[3-(3,7-dioxa-10-azaspiro[5.6]dodecan-10-yl)-5-methyl-phenyl]-1,2,4-triazol-3-amine]
fold induction at 1 µM: 10 to 100
fold induction at 10 µM: 1 to 10

Cc1cc(Nc2ncn(-c3ccccc3)n2)c(F)c(OC2CCOC2)c1 (stereo not shown) [Compound 907, N-(2-fluoro-5-methyl-3-tetrahydrofuran-3-yloxy-phenyl)-1-phenyl-1,2,4-triazol-3-amine]
fold induction at 1 µM: 10 to 100
fold induction at 10 µM: 100 to 1000

Cc1cc(Nc2ncn(-c3ccccn3)n2)c(F)c(N2CCN(C3COC3)CC2)c1 [Compound 908, N-[2-fluoro-5-methyl-3-[4-(oxetan-3-yl)piperazin-1-yl]phenyl]-1-(2-pyridyl)-1,2,4-triazol-3-amine]
fold induction at 1 µM: 1 to 10
fold induction at 10 µM: 10 to 100

Cc1cc(OCC2COC2)cc(Nc2ncn(-c3cc(F)cc(F)c3)n2)c1C [Compound 909, 1-(3,5-difluorophenyl)-N-[2,3-dimethyl-5-(oxetan-3-ylmethoxy)phenyl]-1,2,4-triazol-3-amine]
fold induction at 1 µM: 1 to 10
fold induction at 10 µM: 10 to 100

Cc1cc(NC(=O)NC2CCC2)cc(Nc2ncn(-c3ccccc3)n2)c1 [Compound 910, 1-cyclobutyl-3-[3-methyl-5-[(1-phenyl-1,2,4-triazol-3-yl)amino]phenyl]urea]
fold induction at 1 µM: 1 to 10
fold induction at 10 µM: 10 to 100

Cc1cc(Nc2ncn(-c3cc(F)cc(F)c3)n2)cc(N2CCCC(N3CCOCC3)C2)c1 (stereo not shown) [Compound 911, 1-(3,5-difluorophenyl)-N-[3-methyl-5-(3-morpholino-1-piperidyl)phenyl]-1,2,4-triazol-3-amine]
fold induction at 1 µM: 1 to 10
fold induction at 10 µM: 1 to 10

Cc1cc(Nc2ncn(-c3cc(F)cc(F)c3)n2)cc(NC2CCCC2N2CCOCC2)c1 (stereo not shown) [Compound 912, N3-[1-(3,5-difluorophenyl)-1,2,4-triazol-3-yl]-5-methyl-N1-(2-morpholinocyclopentyl)benzene-1,3-diamine]
fold induction at 1 µM: 1 to 10
fold induction at 10 µM: 1 to 10

Cc1cc(Nc2ncn(-c3cccc(F)c3)n2)c(F)c(OC2CCOC2)c1 (stereo not shown) [Compound 913, N-(2-fluoro-5-methyl-3-tetrahydrofuran-3-yloxy-phenyl)-1-(3-fluorophenyl)-1,2,4-triazol-3-amine]
fold induction at 1 µM: 10 to 100
fold induction at 10 µM: 10 to 100

Cc1cc(Nc2ncn(-c3cc(F)cc(F)c3)n2)cc(N2CCN(CC3CCCO3)CC2)c1 (stereo not shown) [Compound 914, 1-(3,5-difluorophenyl)-N-[3-methyl-5-[4-(tetrahydrofuran-2-ylmethyl)piperazin-1-yl]phenyl]-1,2,4-triazol-3-amine]
fold induction at 1 µM: 10 to 100
fold induction at 10 µM: ≤ 1

Cc1cc(Nc2ncn(-c3cc(F)cc(F)c3)n2)c(F)c(NC2COC2)c1 [Compound 915, N3-[1-(3,5-difluorophenyl)-1,2,4-triazol-3-yl]-2-fluoro-5-methyl-N1-(oxetan-3-yl)benzene-1,3-diamine]
fold induction at 1 µM: 1 to 10
fold induction at 10 µM: ≤ 1

[2H]C1([2H])NC([2H])([2H])C([2H])([2H])N(c2cc(C)cc(Nc3ncn(-c4cc(F)cc(F)c4)n3)c2)C1([2H])[2H] [Compound 916, 1-(3,5-difluorophenyl)-N-[3-methyl-5-(2,2,3,3,5,5,6,6-octadeuteriopiperazin-1-yl)phenyl]-1,2,4-triazol-3-amine]
fold induction at 1 µM: 10 to 100
fold induction at 10 µM: ≤ 1

CCC1CN(CCNc2cc(C)cc(Nc3ncn(-c4cc(F)cc(F)c4)n3)c2)CCO1 (stereo not shown) [Compound 917, N3-[1-(3,5-difluorophenyl)-1,2,4-triazol-3-yl]-N1-[2-(2-ethylmorpholin-4-yl)ethyl]-5-methyl-benzene-1,3-diamine]
fold induction at 1 µM: 10 to 100
fold induction at 10 µM: ≤ 1

Cc1cc(Nc2ncn(-c3cc(F)cc(F)c3)n2)cc(NC2CCOC(C3CC3)C2)c1 (stereo not shown) [Compound 918, N1-(2-cyclopropyltetrahydropyran-4-yl)-N3-[1-(3,5-difluorophenyl)-1,2,4-triazol-3-yl]-5-methyl-benzene-1,3-diamine]
fold induction at 1 µM: 1 to 10
fold induction at 10 µM: ≤ 1

Cc1cc(Nc2ncn(-c3cc(F)cc(F)c3)n2)cc(N2CC(N3CCOCC3)CC2C)c1 (stereo not shown) [Compound 920, 1-(3,5-difluorophenyl)-N-[3-methyl-5-(2-methyl-4-morpholino-pyrrolidin-1-yl)phenyl]-1,2,4-triazol-3-amine]
fold induction at 1 µM: 10 to 100
fold induction at 10 µM: ≤ 1

Cc1cc(Nc2ncn(-c3cc(F)cc(F)c3)n2)cc(N2CC(CC#N)C2)c1 [Compound 921, 2-[1-[3-[[1-(3,5-difluorophenyl)-1,2,4-triazol-3-yl]amino]-5-methyl-phenyl]azetidin-3-yl]acetonitrile]
fold induction at 1 µM: 10 to 100
fold induction at 10 µM: 1 to 10

[2H]C1([2H])N(CCO)C([2H])([2H])C([2H])([2H])N(c2cc(C)cc(Nc3ncn(-c4cc(F)cc(F)c4)n3)c2)C1([2H])[2H] [Compound 922, 2-[2,2,3,3,5,5,6,6-octadeuterio-4-[3-[[1-(3,5-difluorophenyl)-1,2,4-triazol-3-yl]amino]-5-methyl-phenyl]piperazin-1-yl]ethanol]
fold induction at 1 µM: 1 to 10
fold induction at 10 µM: ≤ 1

CC(=O)OCC(COC(C)=O)N1CCN(c2cc(C)cc(Nc3ncn(-c4cc(F)cc(F)c4)n3)c2F)CC1 [Compound 923, [3-acetoxy-2-[4-[3-[[1-(3,5-difluorophenyl)-1,2,4-triazol-3-yl]amino]-2-fluoro-5-methyl-phenyl]piperazin-1-yl]propyl] acetate]
fold induction at 1 µM: 10 to 100
fold induction at 10 µM: 1 to 10

Cc1cc(Nc2ncn(-c3cc(F)cc(F)c3)n2)cc(N2CCN(C3CCN(C)CC3)C(C)C2)c1 (stereo not shown) [Compound 925, 1-(3,5-difluorophenyl)-N-[3-methyl-5-[3-methyl-4-(1-methyl-4-piperidyl)piperazin-1-yl]phenyl]-1,2,4-triazol-3-amine]
fold induction at 1 µM: 1 to 10
fold induction at 10 µM: ≤ 1

[2H]C1([2H])N(c2cc(C)cc(Nc3ncn(-c4cc(F)cc(F)c4)n3)c2)C([2H])([2H])C([2H])([2H])N(C2CCCOC2)C1([2H])[2H] (stereo not shown) [Compound 926, 1-(3,5-difluorophenyl)-N-[3-methyl-5-(2,2,3,3,5,5,6,6-octadeuterio-4-tetrahydropyran-3-yl-piperazin-1-yl)phenyl]-1,2,4-triazol-3-amine]
fold induction at 1 µM: 10 to 100
fold induction at 10 µM: 1 to 10

Cc1cc(Nc2ncn(-c3cc(F)cc(F)c3)n2)cc(N2CCOC(COC(C)C)C2)c1 (stereo not shown) [Compound 927, 1-(3,5-difluorophenyl)-N-[3-[2-(isopropoxymethyl)morpholin-4-yl]-5-methyl-phenyl]-1,2,4-triazol-3-amine]
fold induction at 1 µM: 10 to 100
fold induction at 10 µM: 1 to 10

Cc1cc(NCCN2CCOC(C)C2)cc(Nc2ncn(-c3cc(F)cc(F)c3)n2)c1 (stereo not shown) [Compound 928, N1-[1-(3,5-difluorophenyl)-1,2,4-triazol-3-yl]-5-methyl-N3-[2-(2-methylmorpholin-4-yl)ethyl]benzene-1,3-diamine]
fold induction at 1 µM: 10 to 100
fold induction at 10 µM: ≤ 1
